Data taken from patent US20160177395A1, “BIOMARKERS FOR THE PREDICTION OF RENAL INJURY” (priority 2007, published 2016).
“And” between values parts separate entries of the source, which are not always exact repeats. Equal entries are not always repeated. “Also recorded” adds a separate entry of the source.

Tests used:
kidney = assay: Renal histopathology of rats treated with T1, T2, T3; type: in vivo, rat
Description: Each group consisted of 6 male and 6 female rats. The additional groups consisted of 6 males and 6 female rats treated with control compound for a single day and for five days, as described in Table 24.
T2 “no observed effect level” (NOEL, i.e., the maximal dose at which no toxic effect is visible) is 15 mg/kg.
At autopsy, both kidneys of each animal were removed and each kidney was cross sectioned. Half of each kidney was sent to RNA extraction and analysis.

rat kidney samples = assay: Random-Forest classifiers applied to un-labeled samples of T1, T2, T3 and control (Table 30); settings: for Average 'Toxic' (%): average of the two classifiers
Description: To validate the optimal signature for classification of renal toxicity of a compound after five days of application a test of the signatory polynucleotide/gene expression in rat kidney samples consisting of tissues from rats exposed to three drug compounds and a single control group was carried out (Teva Pharmaceutical Industries, IL).
The two optimal classifiers (signatures described in Tables 26 and 27) were applied to the qRT-PCR reads of the un-labeled samples and their calls was used to assign a level of toxicity to each group and, eventually, each compound.
The classifiers described in Tables 26 and 27, were used for testing the un-labeled samples. Both classifiers were applied to the measurements of each sample, used the 30% bound from above, and the number of samples pass that bound in each group were summarized.

[1] = tested on: kidney tissues of treated or untreated rats; assay: Real-time qRT-PCR of signature amplicons, validation stage, labeled and un-labeled samples (Table 23); settings: for H31883_DB71_seg13 normalized qRT-PCR result / MUSCYCG1R_DB81_seg19-20 normalized qRT-PCR result / W41270_DB81_seg11 normalized qRT-PCR result: un-labeled sample, one line per animal; for AI045075_DB71_seg6 normalized qRT-PCR expression (Interferon stimulated exonuclease 20 (ISG20) transcript) / H31883_DB71_seg13 normalized qRT-PCR expression (Cyclin-G1 (CCNG1) transcript) / MUSCYCG1R_DB81_seg19-20 normalized qRT-PCR expression / W41270_DB81_seg11 normalized qRT-PCR expression (tumor necrosis factor receptor superfamily, member 12a transcript) / W64472_DB81_seg2 normalized qRT-PCR expression (Interferon stimulated exonuclease 20 (ISG20) transcript) / W83813_DB81_seg27 normalized qRT-PCR expression: un-labeled samples, kidney of individual male/female rats
Method in brief: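 Each of four signature genes measured as wild-type and alternative-splice amplicons by qRT-PCR in treated or untreated rat kidney. Normalization was two-step: housekeeping-gene factor, then inter-plate correction from shared samples on a shuffled control plate; final values rescaled for display.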

[2] = Ds1, Day1, oral gavage, female rat kidney
[3] = Ds1, Day1, oral gavage, male rat kidney
[4] = Ds1, Day5, oral gavage, female rat kidney
[5] = Ds1, Day5, oral gavage, male rat kidney
[6] = Ds2, Day1, oral gavage, female rat kidney
[7] = Ds2, Day1, oral gavage, male rat kidney
[8] = Ds2, Day5, oral gavage, female rat kidney
[9] = Ds2, Day5, oral gavage, male rat kidney

CN(C)c1cccc2c1CCC2Nc1cc(=O)[nH]c(=O)[nH]1.Cl (stereo not shown) [T2]
Kidney histopathology findings (kidney; 50 mg/kg, after 7 days): direct cortical tubular toxicity; also recorded: multifocal, consisting of tubular basophilia, indicating regeneration following necrosis; also recorded: basophilic tubules in the cortex, indicating post-necrotic regeneration | Time after which visible pathological damage was seen (kidney; rats): 7 days | no observed effect level (NOEL) (kidney; rats): 15 mg/kg | Renal damage (kidney; rats, dose and duration as in the value): renal damage after 7 days of treatment at the 50 mg/kg dose | Average 'Toxic' (%) (rat kidney samples; Ds1 Day1 Female): 20% | Average 'Toxic' (%) (rat kidney samples; Ds1 Day1 Male): 25% | Average 'Toxic' (%) (rat kidney samples; Ds1 Day5 Female): 30% | Average 'Toxic' (%) (rat kidney samples; Ds1 Day5 Male): 83% | Average 'Toxic' (%) (rat kidney samples; Ds2 Day1 Female): 58.5% | Average 'Toxic' (%) (rat kidney samples; Ds2 Day1 Male): 0% | Average 'Toxic' (%) (rat kidney samples; Ds2 Day5 Female): 50% | Average 'Toxic' (%) (rat kidney samples; Ds2 Day5 Male): 30% | Toxicity conclusion from classifier calls (rat kidney samples; signatures of Tables 26 and 27, 30% bound): nephrotoxic agents | H31883_DB71_seg13 normalized qRT-PCR result [1, 2]: 0.183 and 0.213 and 0.29 and 0.387 | MUSCYCG1R_DB81_seg19-20 normalized qRT-PCR result [1, 2]: 0.54 and 0.419 and 0.836 and 0.49 | W41270_DB81_seg11 normalized qRT-PCR result [1, 2]: 0.492 and 0.468 and 1.072 and 0.969 | H31883_DB71_seg13 normalized qRT-PCR result [1, 3]: 0.955 and 0.798 and 0.931 and 1.182 | MUSCYCG1R_DB81_seg19-20 normalized qRT-PCR result [1, 3]: 0.98 and 0.709 and 1.059 and 1.253 | W41270_DB81_seg11 normalized qRT-PCR result [1, 3]: 0.801 and 0.791 and 1.076 and 1.477 | H31883_DB71_seg13 normalized qRT-PCR result [1, 4]: 0.865 and 0.922 and 0.961 and 0.824 and 1.303 | MUSCYCG1R_DB81_seg19-20 normalized qRT-PCR result [1, 4]: 0.771 and 1.02 and 1.923 and 1.232 and 0.94 | W41270_DB81_seg11 normalized qRT-PCR result [1, 4]: 0.464 and 0.532 and 0.616 and 0.572 and 0.773 | H31883_DB71_seg13 normalized qRT-PCR result [1, 5]: 0.11 and 0.209 and 0.27 and 0.299 | MUSCYCG1R_DB81_seg19-20 normalized qRT-PCR result [1, 5]: 1.566 and 1.449 and 1.516 and 1.237 | W41270_DB81_seg11 normalized qRT-PCR result [1, 5]: 1.445 and 1.42 and 1.258 and 1.447 | H31883_DB71_seg13 normalized qRT-PCR result [1, 6]: 0.289 and 0.365 and 0.32 and 0.444 and 0.254 | MUSCYCG1R_DB81_seg19-20 normalized qRT-PCR result [1, 6]: 2.008 and 0.857 and 3.044 and 2.152 and 0.71 | W41270_DB81_seg11 normalized qRT-PCR result [1, 6]: 1.104 and 0.741 and 1.73 and 1.211 and 0.666 | H31883_DB71_seg13 normalized qRT-PCR result [1, 7]: 0.773 and 0.595 and 0.741 and 0.777 and 0.725 and 0.614 | MUSCYCG1R_DB81_seg19-20 normalized qRT-PCR result [1, 7]: 1.006 and 0.729 and 0.541 and 1.015 and 0.588 and 0.471 | W41270_DB81_seg11 normalized qRT-PCR result [1, 7]: 1.462 and 0.692 and 0.656 and 1.23 and 0.866 and 0.837 | H31883_DB71_seg13 normalized qRT-PCR result [1, 8]: 0.269 and 0.354 | MUSCYCG1R_DB81_seg19-20 normalized qRT-PCR result [1, 8]: 0.799 and 3.003 | W41270_DB81_seg11 normalized qRT-PCR result [1, 8]: 0.554 and 1.029 | H31883_DB71_seg13 normalized qRT-PCR result [1, 9]: 0.615 and 1.022 and 0.962 and 0.626 | MUSCYCG1R_DB81_seg19-20 normalized qRT-PCR result [1, 9]: 1.338 and 0.831 and 0.83 and 0.878 | W41270_DB81_seg11 normalized qRT-PCR result [1, 9]: 0.899 and 1.446 and 0.623 and 1.049 | AI045075_DB71_seg6 normalized qRT-PCR expression (Interferon stimulated exonuclease 20 (ISG20) transcript) ([1]; dose Ds1, Day1, oral gavage): 1.308 and 0.744 and 1.159 | H31883_DB71_seg13 normalized qRT-PCR expression (Cyclin-G1 (CCNG1) transcript) ([1]; dose Ds1, Day1, oral gavage): 0.88 and 0.67 and 0.613 and 0.695 and 0.464 and 0.951 and 0.536 and 0.646 and 0.629 and 0.7 (2×) | MUSCYCG1R_DB81_seg19-20 normalized qRT-PCR expression ([1]; dose Ds1, Day1, oral gavage): 0.938 and 0.555 and 0.115 and 0.859 and 0.124 and 0.888 and 0.267 and 0.157 and 0.47 and 0.126 and 0.51 | W41270_DB81_seg11 normalized qRT-PCR expression (tumor necrosis factor receptor superfamily, member 12a transcript) ([1]; dose Ds1, Day1, oral gavage): 0.481 and 0.662 and 0.473 and 0.76 and 0.474 and 0.876 and 0.959 and 0.518 and 0.823 and 3.38 and 0.623 | W64472_DB81_seg2 normalized qRT-PCR expression (Interferon stimulated exonuclease 20 (ISG20) transcript) ([1]; dose Ds1, Day1, oral gavage): 1.863 and 0.632 and 1.305 | W83813_DB81_seg27 normalized qRT-PCR expression ([1]; dose Ds1, Day1, oral gavage): 0.305 and 0.666 and 0.84 | AI045075_DB71_seg6 normalized qRT-PCR expression (Interferon stimulated exonuclease 20 (ISG20) transcript) ([1]; dose Ds1, Day5, oral gavage): 1.016 and 1.11 | H31883_DB71_seg13 normalized qRT-PCR expression (Cyclin-G1 (CCNG1) transcript) ([1]; dose Ds1, Day5, oral gavage): 1.884 and 1.539 and 1.163 and 1.329 and 1.66 and 1.079 and 0.936 and 0.978 and 1.439 and 1.149 and 2.147 | MUSCYCG1R_DB81_seg19-20 normalized qRT-PCR expression ([1]; dose Ds1, Day5, oral gavage): 0.107 and 0.113 and 1.399 and 1.006 and 0.148 and 0.127 and 0.736 and 1.386 and 1.293 and 0.172 and 0.179 | W41270_DB81_seg11 normalized qRT-PCR expression (tumor necrosis factor receptor superfamily, member 12a transcript) ([1]; dose Ds1, Day5, oral gavage): 0.233 and 0.493 and 0.626 and 1.149 and 0.321 and 0.477 and 0.83 and 1.524 and 1.111 and 0.397 and 0.337 | W64472_DB81_seg2 normalized qRT-PCR expression (Interferon stimulated exonuclease 20 (ISG20) transcript) ([1]; dose Ds1, Day5, oral gavage): 0.929 and 0.996 | W83813_DB81_seg27 normalized qRT-PCR expression ([1]; dose Ds1, Day5, oral gavage): 0.248 and 0.203 | AI045075_DB71_seg6 normalized qRT-PCR expression (Interferon stimulated exonuclease 20 (ISG20) transcript) ([1]; dose Ds2, Day1, oral gavage): 1.43 | H31883_DB71_seg13 normalized qRT-PCR expression (Cyclin-G1 (CCNG1) transcript) ([1]; dose Ds2, Day1, oral gavage): 0.832 and 0.773 and 0.635 and 0.722 and 0.618 and 0.999 and 0.602 and 0.522 and 1.006 and 1.079 and 0.84 and 0.762 | MUSCYCG1R_DB81_seg19-20 normalized qRT-PCR expression ([1]; dose Ds2, Day1, oral gavage): 0.211 and 0.531 and 0.505 and 0.585 and 0.475 and 0.661 and 0.197 and 0.458 and 0.167 and 0.192 and 0.14 and 0.111 | W41270_DB81_seg11 normalized qRT-PCR expression (tumor necrosis factor receptor superfamily, member 12a transcript) ([1]; dose Ds2, Day1, oral gavage): 1.747 and 1.016 and 0.424 and 0.589 and 0.545 and 0.528 and 0.384 and 0.577 and 1.729 and 1.125 and 0.594 and 0.92 | W64472_DB81_seg2 normalized qRT-PCR expression (Interferon stimulated exonuclease 20 (ISG20) transcript) ([1]; dose Ds2, Day1, oral gavage): 0.804 | W83813_DB81_seg27 normalized qRT-PCR expression ([1]; dose Ds2, Day1, oral gavage): 0.201 | AI045075_DB71_seg6 normalized qRT-PCR expression (Interferon stimulated exonuclease 20 (ISG20) transcript) ([1]; dose Ds2, Day5, oral gavage): 0.609 and 1.842 and 0.637 | H31883_DB71_seg13 normalized qRT-PCR expression (Cyclin-G1 (CCNG1) transcript) ([1]; dose Ds2, Day5, oral gavage): 1.386 and 0.676 and 1.01 and 1.128 and 1.161 and 1.146 and 1.057 and 0.942 and 1.256 | MUSCYCG1R_DB81_seg19-20 normalized qRT-PCR expression ([1]; dose Ds2, Day5, oral gavage): 0.345 and 0.169 and 0.513 and 0.148 and 0.185 and 0.997 and 0.746 and 0.686 and 0.655 | W41270_DB81_seg11 normalized qRT-PCR expression (tumor necrosis factor receptor superfamily, member 12a transcript) ([1]; dose Ds2, Day5, oral gavage): 1.186 and 0.308 and 0.497 and 0.711 and 1.237 and 0.857 and 0.788 and 0.457 and 0.668 | W64472_DB81_seg2 normalized qRT-PCR expression (Interferon stimulated exonuclease 20 (ISG20) transcript) ([1]; dose Ds2, Day5, oral gavage): 0.731 and 1.178 and 0.485 | W83813_DB81_seg27 normalized qRT-PCR expression ([1]; dose Ds2, Day5, oral gavage): 0.601 and 0.555 and 0.354
